Measurements reported in patent publication US9150583B2 (Boehringer Ingelheim International GmbH, priority 2011, dated 2015).

How the values were obtained:
Recombinant human CETP = Recombinant human CETP (Homo sapiens (Human), UniProt P11597); test: CETP in vitro assay (fluorometric, Roar Biomedical); type: biochemical; conditions: 3 hours at 37° C., compound concentrations between 1 nM and 30 μM, read-out: IC50 values for inhibition of CETP
Method: CETP inhibitory activity of compounds of the present invention can be determined in a fluorometric assay purchased from Roar Biomedical, Inc. (New York, N.Y., USA). […] Recombinant human CETP was partially purified from medium conditioned by CETP expressing CHO cells. In a 384 well format 2.5 μl of compound solution in DMSO was combined with 2 μl of donor solution, 2 μl of acceptor solution and 0.8 μl of recombinant human CETP solution in a total volume of 100 μl with assay buffer and incubated for 3 hours at 37° C. The fluorescence intensity was measured at excitation wavelength of 485 nm and emission wavelength of 535 nm. IC50 values are calculated from dose effect curves from compound concentrations between 1 nM and 30 μM.

[1] = Assay for metabolic degradation; type: in vitro ADME; conditions: pH 7.6; pooled human liver microsomes, 37° C., microsomal protein 1 mg/ml, test compound 1 μM, NADPH 1 mM; read-out: half-life (t½) values for human liver microsomal metabolic degradation
Method: Assay for Metabolic Degradation
The metabolic degradation of the test compound is assayed at 37° C. with pooled human liver microsomes. The final incubation volume of 100 μl per time point contains TRIS buffer pH 7.6 at room temperature (0.1 M), magnesium chloride (5 mM), microsomal protein (1 mg/ml) and the test compound at a final concentration of 1 μM.
Following a short preincubation period at 37° C., the reactions were initiated by addition of beta-nicotinamide adenine dinucleotide phosphate, reduced form (NADPH, 1 mM) and terminated by transferring an aliquot into solvent after different time points. Additionally, the NADPH-independent degradation was monitored in incubations without NADPH, terminated at the last time point. The quenched incubations are pelleted by centrifugation (10000 g, 5 min). An aliquot of the supernatant is assayed by LC-MS/MS for the amount of parent compound. The half-life (t ½) is determined by the slope of the semilogarithmic plot of the concentration-time profile.

Recombinant human CETP, sequence (P11597 18-493): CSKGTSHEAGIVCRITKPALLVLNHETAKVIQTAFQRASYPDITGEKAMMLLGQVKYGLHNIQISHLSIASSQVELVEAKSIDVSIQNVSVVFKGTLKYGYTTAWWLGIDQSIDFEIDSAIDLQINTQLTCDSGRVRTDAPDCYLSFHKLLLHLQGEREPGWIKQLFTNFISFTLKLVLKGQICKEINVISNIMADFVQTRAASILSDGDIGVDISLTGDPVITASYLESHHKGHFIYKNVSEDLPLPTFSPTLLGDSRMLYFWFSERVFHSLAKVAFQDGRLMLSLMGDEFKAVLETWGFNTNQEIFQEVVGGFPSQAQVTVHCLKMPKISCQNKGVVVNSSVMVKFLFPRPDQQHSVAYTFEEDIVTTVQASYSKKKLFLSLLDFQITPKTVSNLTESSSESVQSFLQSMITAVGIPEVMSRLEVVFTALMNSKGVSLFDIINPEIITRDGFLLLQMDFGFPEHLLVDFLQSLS

IC50 (Recombinant human CETP) [nM] | half-life at 1 μM [1] [h] | Compound
11 |  | COc1cc([C@H]2OC3(CCOCC3)c3c2c(C(C)C)nc2c3[C@@H](O)CC3(CC3)C2)ccc1C(F)(F)F [Example 3, (3R,9S)-4-isopropyl-7,7-(ethan-1,2-diyl)-3-(3-methoxy-4-(trifluoromethyl)phenyl)-2′,3,5′,6,6,7,8,9-octahydro-3H-spiro[furo[3,4-c]quinoline-1,4′-pyran]-9-ol]
9 | 0.95 | CC(C)c1nc2c(c3c1[C@@H](c1ccc(C(F)(F)F)cc1)OC31CCOCC1)[C@@H](O)CC1(CC1)[C@H]2O [Example 5, (3R,6R,9S)-4-isopropyl-7,7-(ethan-1,2-diyl)-3-(4-(trifluoromethyl)phenyl)-2′,3′,5′,6,6′,7,8,9-octahydro-3H-spiro[furo[3,4-c]quinoline-1,4′-pyran]-6,9-diol]
 | > 2.17 | CC(C)c1nc2c(c3c1[C@@H](c1ccc(C(F)(F)F)nc1)OC31CCOCC1)[C@@H](O)CC1(CC1)[C@H]2O [Example 8, (3R,6R,9S)-4-isopropyl-7,7-(ethan-1,2-diyl)-3-(6-(trifluoromethyl)pyridin-3-yl)-2′,3′,5′,6,6′,7,8,9-octahydro-3H-spiro[furo[3,4-c]quinoline-1,4′-pyran]-6,9-diol]

Continued, compound first:

Compound | IC50 (Recombinant human CETP) [nM] | half-life at 1 μM [1] [h]
CC(C)c1nc2c(c3c1[C@@H](c1ccc(C(F)(F)F)cc1)OC31CCOCC1)[C@@H](O)CC1(CC1)C2 [Example 1, (3R,9S)-4-isopropyl-7,7-(ethan-1,2-diyl)-3-(4-(trifluoromethyl)phenyl)-2′,3′,5′,6,6′,7,8,9-octahydro-3H-spiro[furo[3,4-c]quinoline-1,4′-pyran]-9-ol] | 15 | > 2.17
CC(C)c1nc2c(c3c1[C@@H](c1ccc(C(F)(F)F)c(C#N)c1)OC31CCOCC1)[C@@H](O)CC1(CC1)C2 [Example 2] | 18 | > 2.17
CC(C)c1nc2c(c3c1[C@@H](c1ccc(C(F)(F)F)nc1)OC31CCOCC1)[C@@H](O)CC1(CC1)C2 [Example 4] | 90 | 
CC(C)c1nc2c(c3c1[C@@H](c1ccc(C(F)(F)F)c(C#N)c1)OC31CCOCC1)[C@@H](O)CC1(CC1)[C@H]2O [Example 6, 5-((3R,6R,9S)-6,9-dihydroxy-4-isopropyl-7,7-(ethan-1,2-diyl)-2′,3′,5′,6,6′,7,8,9-octahydro-3H-spiro[furo[3,4-c]quinoline-1,4′-pyran]-3-yl)-2-(trifluoromethyl)benzonitrile] | 43 | 
COc1cc([C@H]2OC3(CCOCC3)c3c2c(C(C)C)nc2c3[C@@H](O)CC3(CC3)[C@H]2O)ccc1C(F)(F)F [Example 7, (3R,6R,9S)-4-isopropyl-7,7-(ethan-1,2-diyl)-3-(3-methoxy-4-(trifluoromethyl)phenyl)-2′,3′,5′,6,6′,7,8,9-octahydro-3H-spiro[furo[3,4-c]quinoline-1,4′-pyran]-6,9-diol] | 11 | 
